Converted amounts (≈) assume the structure as drawn. Read-outs that look alike come from different tables or passages of the source. Bridge positions count the residues as written; N and C are the ends. Ends that are not written are not given here. Peptide text beside a SMILES is read from it. I, II: the chains in the order shown.

For one data set, the system named is C. albicans ATCC10231. Kind of data set: microbe, parasite or virus in culture. Particulars: ATCC10231, 48 h. The class given is cell-based. The method, then: (§1) The yeast strains were cultivated and suspended in Sabouraud’s Dextrose (SD) broth diluted to one sixth at a starting OD600 = ∼0.08 in a flat-bottomed microtitre plate. A serial dilution of peptide in the same broth was mixed with the inoculum to give a final peptide concentration of 0.4–22 µM. The antifungal activity was assessed by monitoring the OD600 in cycles of 30 minutes and an orbital shaking at 100 rpm using an Infinite M200 microplate reader (Tecan Group Ltd., Switzerland) for 24/48 h at 37°C. Cultures without peptides were used as positive controls and broth alone or with 22 µM peptide served as negative controls. The minimum concentration required for complete inhibition was assessed by both visible observations as well as by measuring the OD600 and taken as the MIC. Each experiment was repeated in triplicates. For studying the effects of metal ions, SD broth was adjusted with appropriate concentrations of salts to yield a final concentration of 100 and 135 mM for NaCl and KCl and 0.5–2 mM for CaCl2 and MgCl2. MIC determinations were carried out as described above. C. albicans ATCC10231 cells and salts in broth were taken as a positive control. Salts alone (NaCl, KCl, and CaCl2 and MgCl2) in broth or with 22 µM peptide served as a negative control. The effect of 5% human serum on the activities of B4010 against two C. albicans clinical isolates was determined. The human male serum was centrifuged at 13,000 rpm for 10 mins in order to remove the lipids and the supernatant was collected. The MIC values against clinical isolates of C. albicans 2672R and C. albicans 1976R were determined both in standard medium (SD broth) as well as in standard medium containing 5% serum supernatant as before.

For a further data set, the system named is C. albicans DF2672R. As to the kind of experiment: microbe, parasite or virus in culture. The class given is cell-based. Particulars: DF2672R, 48 h. On the procedure: as §1
The test system of another data set is F. solani ATCC36031. As to the kind of experiment: microbe, parasite or virus in culture. The class given is cell-based. The note with it: ATCC36031, 48 h.
The test system of a further data set is C. albicans ATCC2091. Kind of data set: microbe, parasite or virus in culture. The class given is cell-based. Particulars: ATCC2091, 48 h. The method, then: as §1
In another data set the test system is C. albicans ATCC24433. Kind of data set: microbe, parasite or virus in culture. The class given is cell-based. Particulars: ATCC24433, 48 h. On the procedure:
as §1

In another data set the test system is C. albicans DF1976R. As to the kind of experiment: microbe, parasite or virus in culture. It is filed as cell-based. The note with it: DF1976R, 48 h. The method, then:
as §1

Data set [1] is classed as biochemical. On the procedure:
Small unilamellar vesicles (SUVs) were prepared using PC/PE/PI or PS lipids (5∶2.5∶2.5) containing 15 wt% ergosterol or PC/Cholesterol (10∶1). For the preparation of PC/PE/PI or PS/Erg SUV, the lipids were dissolved in chloroform/methanol (2∶1, v/v) in a glass tube. Ergosterol was dissolved in same solvent and added to lipid mixture to make final ergosterol content of 15 wt%. The Lipid-ergosterol mixture was dried using nitrogen gas to form lipid layer. The film was hydrated in a buffer containing 20 mM PBS (pH 7), vortexed and sonicated. Each cycle of sonication (5 sec, 40°C) was followed by freezing in liquid nitrogen and thawing on a water bath kept at 37°C. The procedure was repeated 5–6 times until an optically clear dispersion appeared. The SUV was divided into two parts. To the first part 50 mM calcein was added and incubated for 1 h. The excess calcein was removed by injecting 100 µL of the calcien-loaded SUV’s into a Ultrahydrogel™ 250 (7.8 mm × 300 mm) column equilibrated with 20 mM PBS (pH 7.0) and eluted isochratically at a flow rate of 1 mL/min for 1.5 column volumes. The calcein-loaded liposomes were mixed with calcein-free liposome (1∶1) to adjust final liposome concentration. Peptide concentration was added to obtain 1∶30 or 1∶15 peptide:liposome ratio. Changes in the fluorescence signal after addition of peptide or Triton X-100 was measured on a PTI spectrofluorometer, using an excitation wavelength of 480 nm and emission wavelength of 512 nm. The Percentage calcein released at each time point was calculated using the equation, [drawing 1]
Where A0 is the observed fluorescence intensity upon addition of peptides, Amin is the average intensity at the baseline (before peptide addition), Amax is the average intensity at the saturation phase after adding 1% Triton X-100. Similar protocol was followed for the preparation of PC/Cholesterol SUVs.

The next data set in a line: in vitro. Particulars: human. The class given is cell-based, human. The method, then:
(§2) Immortalized normal human conjunctival epithelial cells (IOBANHC) were a gift from Yolanda Diebold at the University of Valladolid, Spain [31]. IOBA-NHC cells were cultured under standard conditions (humidified atmosphere of 5% CO2 at 37°C) in DMEM/F12 supplemented with 1 µg/ml bovine pancreas insulin, 2 ng/ml mouse epidermal growth factor, 0.1 µg/ml cholera toxin, 5 µg/ml hydrocortisone, 10% fetal bovine serum (FBS), 50 UI/ml penicillin, and 50 UI/ml streptomycin. Cells from passages 50–80 were used in all experiments. Every day, normal culture development was observed by phase-contrast microscopy. Cells were removed by gentle trypsin incubation at confluence and counted. They were seeded into 96 well culture plates (Corning, Schiphol-Rijk, The Netherlands) for microtitration analysis of flow cytotoxicity assay (∼10,000 cells/well). Cultures were kept at 37°C for 24 h. Subconfluent cells (culture surface covering nearly 70%) were then exposed to various peptide concentrations (0.22–225 µM). Cytotoxicity was measured periodically using MultiTox-Fluor Multiplex assay kit (Promega, WI, USA) by measuring the AFC fluorescence (λex = 485 and λem = 520 nm). We report the cell viability after 24 h incubation of the cells with the peptides since there was no detectable toxicity even after 8 h of incubation.

Data set [2] relates to human conjunctival epithelial cells (IOBA-NHC). As to the kind of experiment: in vitro. Particulars: 24 h. The class given is cell-based. On the procedure:
as §2

As for RGRKVVRRKK [Monomer], the values for the MIC with C. albicans ATCC10231 (read-out: MIC), with C. albicans DF2672R (read-out: MIC) and with F. solani ATCC36031 were 78 µM, 78 µM and over 78 µM, respectively.
`CC(C)[C@H](NC(=O)[C@H](CCCCN)NC(=O)[C@H](CCCNC(=N)N)NC(=O)CNC(=O)[C@@H](N)CCCNC(=N)N)C(=O)N[C@H](C(=O)N[C@@H](CCCNC(=N)N)C(=O)N[C@@H](CCCNC(=N)N)C(=O)NCCCC[C@H](NC(=O)[C@H](CCCNC(=N)N)NC(=O)[C@H](CCCNC(=N)N)NC(=O)[C@@H](NC(=O)[C@@H](NC(=O)[C@H](CCCCN)NC(=O)[C@H](CCCNC(=N)N)NC(=O)CNC(=O)[C@@H](N)CCCNC(=N)N)C(C)C)C(C)C)C(=O)N[C@@H](CCCCN)C(=O)O)C(C)C` [B2088] (I: H-RGRKVVRRKK-OH / II: H-RGRKVVRR; amide I:9-II:C; N-terminus and C-terminus assumed): the MIC in the data set on C. albicans ATCC10231 (read-out: MIC) stood at 5.5 µM (≈ 12.6 µg/mL); with C. albicans ATCC2091 (read-out: MIC), 1.4 µM (≈ 3.21 µg/mL); with C. albicans ATCC24433 (read-out: MIC), 2.7 µM (≈ 6.19 µg/mL); in the data set with C. albicans DF1976R (read-out: MIC), 0.8 µM (≈ 1.83 µg/mL); in the data set on C. albicans DF2672R (read-out: MIC) it was 0.8 µM (≈ 1.83 µg/mL); against F. solani ATCC36031, 10.9 µM (≈ 25 µg/mL). Further, the “calcein release relative to B4010” value in [1] is on record as “decreased calcein release”.
Broadly, the viability is a per cent measure of how many cells are alive, often set against a control. The low end stands for a greater loss of cells, the high end for better survival. A word on the EC50: it is the concentration at which the effect is half-maximal. Low readings indicate a more potent agent, high ones a less potent agent. Turning to `CC(C)[C@H](NC(=O)[C@H](CCCCN)NC(=O)[C@H](CCCNC(=N)N)NC(=O)CNC(=O)[C@H](C)N)C(=O)N[C@H](C(=O)N[C@@H](CCCNC(=N)N)C(=O)N[C@@H](CCCNC(=N)N)C(=O)NCCCC[C@H](NC(=O)[C@H](CCCNC(=N)N)NC(=O)[C@H](CCCNC(=N)N)NC(=O)[C@@H](NC(=O)[C@@H](NC(=O)[C@H](CCCCN)NC(=O)[C@H](CCCNC(=N)N)NC(=O)CNC(=O)[C@H](C)N)C(C)C)C(C)C)C(=O)NCCCC[C@H](NC(=O)[C@H](CCCCNC(=O)[C@H](CCCNC(=N)N)NC(=O)[C@H](CCCNC(=N)N)NC(=O)[C@@H](NC(=O)[C@@H](NC(=O)[C@H](CCCCN)NC(=O)[C@H](CCCNC(=N)N)NC(=O)CNC(=O)[C@H](C)N)C(C)C)C(C)C)NC(=O)[C@H](CCCNC(=N)N)NC(=O)[C@H](CCCNC(=N)N)NC(=O)[C@@H](NC(=O)[C@@H](NC(=O)[C@H](CCCCN)NC(=O)[C@H](CCCNC(=N)N)NC(=O)CNC(=O)[C@H](C)N)C(C)C)C(C)C)C(=O)N[C@@H](CCCCN)C(=O)O)C(C)C` [B4010_R1A] (I: H-AGRKVVRRKKK-OH / II: H-AGRKVVRRK / III: H-AGRKVVRR / IV: H-AGRKVVRR; amide I:9-IV:C, I:10-II:C, II:9-III:C; N-terminus and C-terminus assumed), the MIC in the data set on C. albicans ATCC10231 (read-out: MIC in µM against Ca 10231) is 5.9 µM (≈ 24.9 µg/mL); in the data set on C. albicans ATCC2091 (read-out: MIC in µM against Ca 2091) it was 1.5 µM (≈ 6.33 µg/mL); with C. albicans ATCC24433 (read-out: MIC in µM against Ca 24433), 5.9 µM (≈ 24.9 µg/mL); with C. albicans DF1976R (read-out: MIC in µM against Ca DF1976R) it was 0.75 µM (≈ 3.17 µg/mL); in the data set on C. albicans DF2672R (read-out: MIC in µM against Ca 2672R) it was 1.5 µM (≈ 6.33 µg/mL). In the data set “in vitro”, the viability at 24 h, 237 µM came out at 67.6%. In data set [2], the 50% effective concentration (EC50) was over 237 µM.
For RGRKVVRRKKRRVVKRGR [Linear Retrodimer], the MIC in the data set with C. albicans ATCC10231 (read-out: MIC) worked out at 22 µM; in the data set with C. albicans ATCC2091 (read-out: MIC), 11 µM; in the data set on C. albicans ATCC24433 (read-out: MIC), 5.5 µM; with C. albicans DF1976R (read-out: MIC), 2.7 µM; with C. albicans DF2672R (read-out: MIC), 2.7 µM.
Consider `CC(C)[C@H](N)C(=O)N[C@@H](CCCNC(=N)N)C(=O)NCC(=O)N[C@@H](CCCNC(=N)N)C(=O)N[C@H](C(=O)N[C@@H](CCCNC(=N)N)C(=O)N[C@@H](CCCCN)C(=O)N[C@@H](CCCNC(=N)N)C(=O)NCCCC[C@H](NC(=O)[C@H](CCCNC(=N)N)NC(=O)[C@H](CCCCN)NC(=O)[C@H](CCCNC(=N)N)NC(=O)[C@@H](NC(=O)[C@H](CCCNC(=N)N)NC(=O)CNC(=O)[C@H](CCCNC(=N)N)NC(=O)[C@@H](N)C(C)C)C(C)C)C(=O)NCCCC[C@H](NC(=O)[C@H](CCCCNC(=O)[C@H](CCCNC(=N)N)NC(=O)[C@H](CCCCN)NC(=O)[C@H](CCCNC(=N)N)NC(=O)[C@@H](NC(=O)[C@H](CCCNC(=N)N)NC(=O)CNC(=O)[C@H](CCCNC(=N)N)NC(=O)[C@@H](N)C(C)C)C(C)C)NC(=O)[C@H](CCCNC(=N)N)NC(=O)[C@H](CCCCN)NC(=O)[C@H](CCCNC(=N)N)NC(=O)[C@@H](NC(=O)[C@H](CCCNC(=N)N)NC(=O)CNC(=O)[C@H](CCCNC(=N)N)NC(=O)[C@@H](N)C(C)C)C(C)C)C(=O)N[C@@H](CCCCN)C(=O)O)C(C)C` [Sc_B4010] (I: H-VRGRVRKRKKK-OH / II: H-VRGRVRKRK / III: H-VRGRVRKR / IV: H-VRGRVRKR; amide I:9-IV:C, I:10-II:C, II:9-III:C; N-terminus and C-terminus assumed), for which the MIC in the data set with C. albicans ATCC10231 (read-out: MIC) is reported as 5.6 µM (≈ 25.6 µg/mL); in the data set with C. albicans ATCC2091 (read-out: MIC) it was 2.7 µM (≈ 12.3 µg/mL); with C. albicans ATCC24433 (read-out: MIC) it was 5.6 µM (≈ 25.6 µg/mL); in the data set on C. albicans DF1976R (read-out: MIC) it was 0.8 µM (≈ 3.65 µg/mL); in the data set on C. albicans DF2672R (read-out: MIC), 0.8 µM (≈ 3.65 µg/mL). For the same molecule, the “calcein release relative to B4010” value in data set [1] is recorded as “decreased calcein release”.
